{
  "source": "ChEMBL document CHEMBL5725882",
  "about": "“Imide and acylurea derivatives as modulators of the glucocorticoid receptor” (2017)",
  "data": [
    {"target": "T1, Glucocorticoid receptor (Homo sapiens, UniProt P04150)", "T1 sequence (P04150 whole entry)": "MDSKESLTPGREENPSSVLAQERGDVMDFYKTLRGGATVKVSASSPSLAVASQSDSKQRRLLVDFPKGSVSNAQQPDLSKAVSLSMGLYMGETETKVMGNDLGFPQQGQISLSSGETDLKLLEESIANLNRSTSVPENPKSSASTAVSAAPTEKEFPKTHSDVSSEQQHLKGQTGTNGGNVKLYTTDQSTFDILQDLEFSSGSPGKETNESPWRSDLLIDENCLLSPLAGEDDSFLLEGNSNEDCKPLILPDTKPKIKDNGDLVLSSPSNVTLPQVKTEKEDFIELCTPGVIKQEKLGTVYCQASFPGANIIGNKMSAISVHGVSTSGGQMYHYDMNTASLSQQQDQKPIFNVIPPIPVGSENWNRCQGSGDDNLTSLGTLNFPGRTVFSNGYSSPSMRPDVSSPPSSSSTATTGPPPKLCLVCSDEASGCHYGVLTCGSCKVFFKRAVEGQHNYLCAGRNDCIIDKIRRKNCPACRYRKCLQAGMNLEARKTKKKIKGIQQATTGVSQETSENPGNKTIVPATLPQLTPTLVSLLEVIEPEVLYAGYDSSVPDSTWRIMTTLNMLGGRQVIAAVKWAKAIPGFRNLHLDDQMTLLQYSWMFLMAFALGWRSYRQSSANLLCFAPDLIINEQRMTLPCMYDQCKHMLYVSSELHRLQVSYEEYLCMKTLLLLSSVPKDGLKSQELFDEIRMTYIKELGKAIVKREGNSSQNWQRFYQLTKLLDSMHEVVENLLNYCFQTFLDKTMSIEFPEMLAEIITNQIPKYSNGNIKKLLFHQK", "assay": "Briefly, purified human recombinant full-length glucocorticoid receptor (2 nM) was mixed with fluorescently labeled glucocorticoid (1 nM Fluormone GS Red) in the presence or absence of test compound. After two hour incubation at room temperature in the dark, the fluorescence polarization (FP) of the samples was measured. […] Test compounds were analyzed in the concentration range from 8.5E-05 μM to 5 μM. Binding Assay (II):In order to measure the binding of compounds on the glucocorticoid receptor a commercially available kit was used (Glucocorticoid receptor competitor assay kit, PanVera Co., Madison, Wis., P2816). Briefly, a cell lysate containing recombinantly expressed human full-length glucocorticoid receptor was mixed with a fluorescently labeled glucocorticoid (1 nM Fluormone GS1) in the presence or absence of test compound. After one hour at room temperature, the fluorescence polarization (FP) of the samples were measured. […] An appropriate cell lysate or purified NHR is used as the source of the NHR. The fluorescent probe and unlabeled competitor are appropriate for the specific NHR, i.e., are ligands for the specific NHR.", "units": {"Ki": "nM"}, "values": [
      {"smiles": "CC(=O)NC(=O)C(C)(C)[C@@H]1c2ccc(-c3ccc(C(=O)N(C)C)cc3)nc2Oc2c(F)cccc21", "Ki": 93.5},
      {"smiles": "CC(C)(C(=O)NC(N)=O)[C@H]1c2ccccc2Oc2nc(-c3ccc(C(=O)N4CCOCC4)cc3)ccc21", "Ki": 1.81},
      {"smiles": "CNC(=O)NC(=O)C(C)(C)[C@@H]1c2ccc(-c3ccc(C(C)(C)O)cc3)nc2Oc2c(F)cccc21", "Ki": 1.42},
      {"smiles": "CC(=O)NC(=O)C(C)(C)[C@H]1c2ccccc2Oc2nc(-c3ccc(C(=O)N4CCOCC4)cc3)ccc21", "Ki": 7.01},
      {"smiles": "COc1ccc2c(c1)Oc1ccccc1[C@@H]2C(C)(C)C(=O)NC(N)=O", "Ki": 8.57},
      {"smiles": "CC(C)(O)c1ccc(-c2ccc3c(n2)Oc2c(F)cccc2[C@@H]3C(C)(C)C(=O)NC(N)=O)cc1", "Ki": 0.32},
      {"smiles": "COC(=O)NC(=O)C(C)(C)[C@@H]1c2ccc(-c3ccc(C(=O)OC)cc3)nc2Oc2c(F)cccc21", "Ki": 5.28},
      {"smiles": "CC(C)(C(=O)NC(N)=O)[C@@H]1c2ccc(-c3ccc(C(=O)N4CCC4)cc3)nc2Oc2c(F)cccc21", "Ki": 0.93},
      {"smiles": "CC(C)(C(=O)NC(=O)NCCO)[C@@H]1c2ccc(-c3ccc(C(=O)N4CCOCC4)cc3)nc2Oc2c(F)cccc21", "Ki": 61.7},
      {"smiles": "CC(C)NC(=O)NC(=O)C(C)(C)[C@@H]1c2ccc(-c3ccc(C(=O)N4CCOCC4)cc3)nc2Oc2c(F)cccc21", "Ki": 32.4},
      {"smiles": "CC(C)(O)c1ccc(-c2ccc3c(n2)Oc2c(F)cccc2[C@@H]3C(C)(C)C(=O)NC(=O)NCCO)cc1", "Ki": 25.1},
      {"smiles": "CC(C)(O)CNC(=O)NC(=O)C(C)(C)[C@@H]1c2ccc(-c3ccc(C(=O)N4CCOCC4)cc3)nc2Oc2c(F)cccc21", "Ki": 87.1},
      {"smiles": "CC(C)S(=O)(=O)c1ccc(-c2ccc3c(n2)Oc2ccccc2[C@@H]3C(C)(C)C(=O)NC(N)=O)cc1", "Ki": 0.58},
      {"smiles": "CNC(=O)NC(=O)C(C)(C)[C@@H]1c2ccc(Cl)nc2Oc2c(F)cccc21", "Ki": 37.5},
      {"smiles": "CCC(=O)NC(=O)C(C)(C)[C@@H]1c2ccc(-c3ccc(C(=O)N4CCOCC4)cc3)nc2Oc2c(F)cccc21", "Ki": 66.5},
      {"smiles": "CC(C)(O)CNC(=O)NC(=O)C(C)(C)[C@@H]1c2ccc(-c3ccc(C(C)(C)O)cc3)nc2Oc2c(F)cccc21", "Ki": 20.8},
      {"smiles": "CC(C)(C(=O)NC(=O)N1CCOCC1)[C@@H]1c2ccc(-c3ccc(C(=O)N4CCOCC4)cc3)nc2Oc2c(F)cccc21", "Ki": 171}
    ]}
  ]
}
